Source: the COVID Moonshot data (paper PMC11187573), “Identification of SARS-CoV-2 Mpro inhibitors through deep reinforcement learning for de novo drug design and computational chemistry approaches” (RSC Medicinal Chemistry, 2024)

Key:
[1] = molecular target: SARS-CoV-2 Main Protease (SARS-CoV-2) (UniProt P0DTD1)
[2] = molecular target: SARS-CoV-2 Main Protease (SARS-CoV-2) (UniProt P0DTD1); remark: listed apart in the source

Row | Structure (SMILES) | inhibition ([1]; 20.0 µM) [%] | inhibition ([1]; 50.0 µM) [%] | inhibition ([2]; 20.0 µM) [%] | relative solubility at 20 uM | relative solubility at 100 uM | inhibition ([2]; 50.0 µM) [%] | IC50 [2] [µM]
1 | C#Cc1cccc(N(C(=O)C=C)C(C(=O)NC(C)(C)C)c2cccnc2)c1 (configuration not stated) | -3.84 | 3.7 | 0 | 1 | 1.01 |  | 
2 | Cc1ccn(CC(=O)NCc2nccn2CCc2ccccc2)c(=O)c1 | -14.1 | -2.52 |  | 1 | 1 | 0 | 
3 | Cc1ccc(-c2cc(C(F)(F)F)nn2-c2ccc(S(N)(=O)=O)cc2)cc1 | 6.23 | 11.9 | 2.17 | 0.91 | 0.79 |  | 
4 | C/C=C/C(=O)Nc1cccc(OC2CC(=O)N2)c1 (configuration not stated) | -3.03 | 4.68 |  | 1 | 1 | 0 | 
5 | CN1C(=O)/C(=N\NC(=O)c2ccc3c(c2)OCO3)c2ccccc21 | -16.9 | -60.6 |  | 0.97 | 0.75 | -12.8 | 
6 | COCCc1ccc(Cl)cc1CN1CCN(C(=O)CCl)CC1 | 96.1 | 95.1 |  | 1 | 0.99 | 100 | 2.42
7 | CSc1ccncc1NC(=O)Cc1ccc2c(c1)CCCC2 | -1.16 | 11.6 |  | 0.99 | 0.67 | 0 | 
8 | C=CC(=O)N(c1ccc(C(C)(C)C)cc1)C(C(=O)NC(C)(C)C)c1cccnc1 (configuration not stated) | 12.7 | 27.2 | 0 | 0.96 | 0.89 | 16.1 | 
9 | C=CC(=O)N(c1ccc(C(C)(C)C)cc1)C(C(=O)NC(C)(C)C)c1cncc(OCC)c1 (configuration not stated) | -1.87 | 2.59 | -0.816 | 0.99 | 0.89 | 15 | 
10 | C=CC(=O)N(c1ccc(C(C)(C)C)cc1)C(C(=O)NC(C)(C)C)c1cncc(C(C)(F)F)c1 (configuration not stated) | -11.5 | -15.5 | 0 | 0.99 | 0.96 | 0 | 
11 | O=C(NC1CCCCC1NC(=O)c1ccncc1)c1ccccc1 (configuration not stated) |  | -22.4 | 0 | 1 | 1 | 0 | 
12 | Cc1cc(C)cc(NC(=O)Cn2cncc2C)c1 | -2.21 | 2.72 |  | 1 | 1 | 0 | 
13 | O=C(CC(=O)N1CCOCC1)NC1CCCCC1 | 19.8 | 6.01 | 0 | 0.99 | 1 | 0 | 
14 | Cc1ccncc1NC(=O)[C@@H]1CNC(=O)O1 (stereo in doubt) | 1.35 | 1.36 |  | 1 | 1 | 8.86 | 
15 | Cc1ccnc(C)c1NC(=O)C1CC2CC2C1 (configuration not stated) | 10.2 | 15.6 |  | 1 | 1 | 0 | 
16 | Cc1ccc(S(=O)(=O)N2CCN(C(=O)c3cc(=O)[nH]c4ccc(Cl)cc34)CC2)cc1 | -0.869 | -0.533 |  | 0.97 | 0.88 | 11.5 | 
17 | CCOC(=O)[C@@H](CCc1ccccc1)N[C@H](C)C(=O)Nc1cccc(CN2CCCC2)c1 (stereo in doubt) | -3.55 | 1.33 |  | 0.99 | 0.97 | 6.6 | 
18 | C=CC(=O)N(c1ccc(C(C)(C)C)cc1)C(C(=O)NCCc1cccc(F)c1)c1cncc(C)c1 (configuration not stated) | 49 | 78.2 |  | 0.8 | 0.28 | 0 | 
19 | Cc1ccncc1NC(=O)CCOC1CC1 | 8.26 | 22 |  | 1 | 1 | 0 | 
20 | Cc1cccc(NC(=O)Cn2cncc2C)n1 | -1.3 | -3.38 |  | 1 | 1.01 | 0 | 
21 | CCCN(C(=O)Cc1cccc(Cl)c1)c1cccnc1 | 2.28 | 3.25 |  | 1 | 1 | 36.2 | 
22 | CC(C)CCNC(=O)C(CC(C)C)NC(=O)C1OC1C(=O)O (configuration not stated) | 0.736 | -2.95 |  | 1 | 1 | 0 | 
23 | CO[C@@H](C)C(=O)Nc1cnccc1C (stereo in doubt) | 1.23 | 0.255 |  | 1 | 1.01 | 6.67 | 
24 | O=C(c1cc(=O)[nH]c2ccccc12)N1CCN(c2ccccc2)CC1 |  | 54.1 | 66.6 | 1 | 1 | 78.8 | 10.4
25 | O=C(Nc1cccnc1)c1cc(Cl)ccc1-c1ccccc1 | 47.4 | 60.4 | 2.13 | 1 | 0.97 |  | 
26 | COC1CCN(c2ccc(S(N)(=O)=O)cc2)CC1 | 2.98 | 6.82 | 29.7 | 1 | 1 | 35.4 | 
27 | O=C(NCC1COc2ccccc2O1)c1cc(=O)[nH]c2cc(F)ccc12 (configuration not stated) | -0.372 | -2.5 |  | 0.98 | 0.62 | 3.98 | 
28 | NS(=O)(=O)c1ccc(N2CCC(N3CCCCC3)CC2)cc1 |  | 7.79 | 0 | 1 | 1 | 0 | 
